Results: patent US20150038438A1, “ANTIBACTERIAL COMPOUNDS AND METHODS FOR USE” (PTC THERAPEUTICS, INC., priority 2011, published 2015)
≈ marks a conversion by molar mass, not a printed value. Counter-ions that a name gives are not always drawn.

Tests used:
Experiment in all cases: Antibacterial activity, microbroth dilution method (MIC)
[1] = test system: Gram-positive Staphylococcus aureus (S. aureus) 29213; assay type: cell-based; conditions: Staphylococcus aureus, Gram-positive S. aureus 29213
Excerpt: (§1) The antibacterial activity from a microbroth dilution method may be presented as the minimum inhibitory concentration (MIC in μg/mL). The MIC value is the lowest concentration of drug which prevents macroscopically visible growth under test conditions.
(§2) Antibacterial activity of test compounds against the super sensitive Gram-negative Escherichia coli (E. coli) BAS849 bacterium, the control Gram-negative E. coli 25922 strain and the Gram-positive Staphylococcus aureus (S. aureus) 29213 bacterium are shown in Table 1.

[2] = test system: super sensitive Gram-negative Escherichia coli (E. coli) BAS849; assay type: cell-based; conditions: Escherichia coli; super sensitive Gram-negative E. coli BAS849; microbroth dilution; read-out: MIC, E. coli BAS849
Excerpt: as §1, §2

[3] = test system: control Gram-negative E. coli 25922 strain; assay type: cell-based, Escherichia coli; conditions: Escherichia coli
Excerpt: as §1, §2

| SMILES | MIC [1] | MIC [2] | MIC [3] |
| --- | --- | --- | --- |
| Cl.Cn1c(CNCC2CCCO2)cc2cc3c(cc21)CCCc1c-3[nH]c(=O)c(C(=O)O)c1O (stereo not drawn) [Cpd 161, 4-hydroxy-9-methyl-2-oxo-10-((((tetrahydrofuran-2-yl)methyl)amino)methyl)-1,2,5,6,7,9-hexahydropyrido[3′,2′:6,7]cyclohepta[1,2-f]indole-3-carboxylic acid hydrochloride] | 12.5 to 150 µg/mL | < 1 µg/mL | 1 to 3.5 µg/mL |
| COCC(C)NCc1cc2cc3c(cc2n1C)OCCc1c-3[nH]c(=O)c(C(=O)O)c1O.Cl (stereo not drawn) [Cpd 184, 4-hydroxy-10-(((1-methoxypropan-2-yl)amino)methyl)-9-methyl-2-oxo-2,5,6,9-tetrahydro-1H-pyrido[2′,3′:4,5]oxepino[3,2-f]indole-3-carboxylic acid hydrochloride] | 12.5 to 150 µg/mL | < 1 µg/mL | 3.5 to 12.5 µg/mL |
| Cl.Cn1c(CNC(C)(C)C)cc2cc3c(cc21)CCCc1cc(C(=O)O)c(=O)[nH]c1-3 [Cpd 56, 10-((tert-butylamino)methyl)-9-methyl-2-oxo-1,2,5,6,7,9-hexahydropyrido[3′,2′:6,7]cyclohepta[1,2-f]indole-3-carboxylic acid hydrochloride] | 12.5 to 150 µg/mL | < 1 µg/mL | 1 to 3.5 µg/mL |
| CCNc1ccc2c(c1)CCCCc1c-2[nH]c(=O)c(C(=O)O)c1O [Cpd 129, 10-(ethylamino)-4-hydroxy-2-oxo-1,2,5,6,7,8-hexahydrobenzo[7,8]cycloocta[1,2-b]pyridine-3-carboxylic acid] | 3.5 to 12.5 µg/mL (≈ 10.7 to 38.1 µM) | 1 to 3.5 µg/mL (≈ 3.05 to 10.7 µM) | 12.5 to 150 µg/mL (≈ 38.1 to 457 µM) |
| CC1Cc2cc(N3CCC(N(C)C)C3)ccc2-c2[nH]c(=O)c(C(=O)O)c(O)c21.Cl (stereo not drawn) [Cpd 109, 8-(3-(dimethylamino)pyrrolidin-1-yl)-4-hydroxy-5-methyl-2-oxo-1,2,5,6-tetrahydrobenzo[h]quinoline-3-carboxylic acid hydrochloride] | 12.5 to 150 µg/mL | 3.5 to 12.5 µg/mL | 12.5 to 150 µg/mL |
| Cl.Cn1c(CN2CCC2)cc2cc3c(cc21)CCc1c-3[nH]c(=O)c(C(=O)O)c1O [Cpd 21, 9-(azetidin-1-ylmethyl)-4-hydroxy-8-methyl-2-oxo-2,5,6,8-tetrahydro-1H-indolo[6,5-h]quinoline-3-carboxylic acid hydrochloride] | 12.5 to 150 µg/mL | 1 to 3.5 µg/mL | 3.5 to 12.5 µg/mL |
| COc1ccc(CNCc2cc3cc4c(cc3n2C)OCCc2c-4[nH]c(=O)c(C(=O)O)c2O)c(OC)c1.Cl [Cpd 170, 10-(((2,4-dimethoxybenzyl)amino)methyl)-4-hydroxy-9-methyl-2-oxo-2,5,6,9-tetrahydro-1H-pyrido[2′,3′:4,5]oxepino[3,2-f]indole-3-carboxylic acid hydrochloride] | 1 to 3.5 µg/mL | < 1 µg/mL | 1 to 3.5 µg/mL |
| CN1CCC[C@@H]2CN(c3ccc4c(c3)CCCc3c-4[nH]c(=O)c(C(=O)O)c3O)C[C@@H]21.Cl [Cpd 115, 4-hydroxy-9-((4aR,7aR)-1-methylhexahydro-1H-pyrrolo[3,4-b]pyridin-6(2H)-yl)-2-oxo-2,5,6,7-tetrahydro-1H-benzo[6,7]cyclohepta[1,2-b]pyridine-3-carboxylic acid hydrochloride] | 12.5 to 150 µg/mL | 3.5 to 12.5 µg/mL | 12.5 to 150 µg/mL |
| CN(C)c1ccc2c(c1)CCCCc1c-2[nH]c(=O)c(C(=O)O)c1O [Cpd 5, 10-(dimethylamino)-4-hydroxy-2-oxo-1,2,5,6,7,8-hexahydrobenzo[7,8]cycloocta[1,2-b]pyridine-3-carboxylic acid] | 3.5 to 12.5 µg/mL (≈ 10.7 to 38.1 µM) | < 1 µg/mL | 12.5 to 150 µg/mL (≈ 38.1 to 457 µM) |
| CCNCc1cc2cc3c(cc2n1C)[C@H](O)[C@H](O)Cc1c-3[nH]c(=O)c(C(=O)O)c1O.Cl (relative stereo) [Cpd 71, (cis)-10-((ethylamino)methyl)-4,6,7-trihydroxy-9-methyl-2-oxo-1,2,5,6,7,9-hexahydropyrido[3′,2′:6,7]cyclohepta[1,2-f]indole-3-carboxylic acid hydrochloride] | 12.5 to 150 µg/mL | 12.5 to 150 µg/mL | 12.5 to 150 µg/mL |
| CN(C)c1ccc2c(c1)CCCCc1cc(C(=O)O)c(=O)[nH]c1-2 [Cpd 4, 10-(dimethylamino)-2-oxo-1,2,5,6,7,8-hexahydrobenzo[7,8]cycloocta[1,2-b]pyridine-3-carboxylic acid] | 12.5 to 150 µg/mL (≈ 40 to 480 µM) | < 1 µg/mL | 12.5 to 150 µg/mL (≈ 40 to 480 µM) |
| CC1Cc2cc3c(cc2-c2[nH]c(=O)c(C(=O)O)c(O)c21)OCO3 (stereo not drawn) [Cpd 106, 4-hydroxy-5-methyl-2-oxo-1,2,5,6-tetrahydro-[1,3]dioxolo[4′,5′:4,5]benzo[1,2-h]quinoline-3-carboxylic acid] | 12.5 to 150 µg/mL (≈ 39.6 to 476 µM) | 1 to 3.5 µg/mL (≈ 3.17 to 11.1 µM) | 12.5 to 150 µg/mL (≈ 39.6 to 476 µM) |
| Cl.Cn1c(CNC(C)(C)C)cc2cc3c(cc21)OCCc1c-3[nH]c(=O)c(C(=O)O)c1O [Cpd 175, 10-((tert-butylamino)methyl)-4-hydroxy-9-methyl-2-oxo-2,5,6,9-tetrahydro-1H-pyrido[2′,3′:4,5]oxepino[3,2-f]indole-3-carboxylic acid hydrochloride] | 3.5 to 12.5 µg/mL | < 1 µg/mL | < 1 µg/mL |
| CN(CCO)Cc1cc2cc3c(cc2n1C)CCCc1c-3[nH]c(=O)c(C(=O)O)c1O.Cl [Cpd 149, 4-hydroxy-10-(((2-hydroxyethyl)(methyl)amino)methyl)-9-methyl-2-oxo-1,2,5,6,7,9-hexahydropyrido[3′,2′:6,7]cyclohepta[1,2-f]indole-3-carboxylic acid hydrochloride] | 3.5 to 12.5 µg/mL | < 1 µg/mL | 3.5 to 12.5 µg/mL |
| CN(C)C1CCN(Cc2cc3cc4c(cc3n2C)CCCc2c-4[nH]c(=O)c(C(=O)O)c2O)CC1.Cl.Cl [Cpd 30, 10-((4-(dimethylamino)piperidin-1-yl)methyl)-4-hydroxy-9-methyl-2-oxo-1,2,5,6,7,9-hexahydropyrido[3′,2′:6,7]cyclohepta[1,2-f]indole-3-carboxylic acid dihydrochloride] | 3.5 to 12.5 µg/mL | < 1 µg/mL | 3.5 to 12.5 µg/mL |
| CC1CCc2c([nH]c(=O)c(C(=O)O)c2O)-c2cc3cc(CNC(C)(C)C)n(C)c3cc21.Cl (stereo not drawn) [Cpd 65, 10-((tert-butylamino)methyl)-4-hydroxy-7,9-dimethyl-2-oxo-1,2,5,6,7,9-hexahydropyrido[3′,2′:6,7]cyclohepta[1,2-f]indole-3-carboxylic acid hydrochloride] | 3.5 to 12.5 µg/mL | 1 to 3.5 µg/mL | 3.5 to 12.5 µg/mL |
| CN[C@H]1[C@@H]2CN(c3ccc4c(c3)CCCc3c-4[nH]c(=O)c(C(=O)O)c3O)C[C@@H]21 [Cpd 11, 4-hydroxy-9-((cis,cis)-6-(methylamino)-3-azabicyclo[3.1.0]hexan-3-yl)-2-oxo-2,5,6,7-tetrahydro-1H-benzo[6,7]cyclohepta[1,2-b]pyridine-3-carboxylic acid hydrochloride] | 3.5 to 12.5 µg/mL | < 1 µg/mL | 1 to 3.5 µg/mL |
| CC1CCc2c([nH]c(=O)c(C(=O)O)c2O)-c2cc3cc(CNC4(C)CC4)n(C)c3cc21.Cl (stereo not drawn) [Cpd 66, 4-hydroxy-7,9-dimethyl-10-(((1-methylcyclopropyl)amino)methyl)-2-oxo-1,2,5,6,7,9-hexahydropyrido[3′,2′:6,7]cyclohepta[1,2-f]indole-3-carboxylic acid hydrochloride] | 3.5 to 12.5 µg/mL | 1 to 3.5 µg/mL | 12.5 to 150 µg/mL |
